Source: patent publication US5436253A, “Pyridonecarboxylic acid derivatives and mycotic infections” (Daiichi Pharmaceutical Co., Ltd., priority 1993, dated 1995)

Tests used:
Set-up in all cases: MIC Alone: unit not given beside the values
Conditions in all cases: antimycotic agent alone
[1] = tested on: C. albicans
[2] = tested on: Cryptococcus
[3] = tested on: Blastomyces dermatitidis

Structure (SMILES) | MIC Alone [1] | MIC Alone [2] | MIC Alone [3] | MLC Alone [1] | MLC Alone [2] | MLC Alone [3]
OC(Cn1cncn1)(Cn1cncn1)c1ccc(F)cc1F [FLU, fluconazole] | 2.5 | 10 | 10 | – | – | –
C[C@@H]1[C@H](O)[C@@H](C)/C=C/C=C/C=C/C=C/C=C/C=C/C=C/[C@H](O[C@@H]2O[C@H](C)[C@@H](O)[C@H](N)[C@@H]2O)C[C@@H]2O[C@](O)(C[C@@H](O)C[C@@H](O)[C@H](O)CC[C@@H](O)C[C@@H](O)CC(=O)O[C@H]1C)C[C@H](O)[C@H]2C(=O)O [AMB, amphotericin B] | – | 0.29 | 0.29 | > 4.62 | – | –
Clc1ccc(COC(Cn2ccnc2)c2ccc(Cl)cc2Cl)c(Cl)c1 (stereo not drawn) [MON, miconazole] | 1.25 | – | – | – | 5 | 5
